Columns and labels:
Type in all cases: cell-based
[1] = tested on: p65 in the cell nucleus of RAW264.7 cells; experiment: Western blot, amount of p65 in nuclei induced by RANKL; details: KMUP-1 in advance 24 hours, RANKL 30 minutes, FIG. 8(B)
Description: IκBα which originally binds with NF-κB to inhibit its activity in cytoplasm is stimulated by RANKL to be phosphorylized and be hydrolyzed after separating from NF-κB. Then, the free NF-κB transfers into a cell nucleus to play a role as a transcription factor. According to the experimental result, compared with the control group, in the group induced by RANKL for 30 minutes, the IκBα in the cytoplasm is obviously phosphorylized and hydrolyzed. […] According to the result, KMUP-1 can inhibit NF-κB activation induced by RANKL. Nuclear proteins were extracted according to the instructions of NE-PER kit. 2.5×10^6 cells were plated per well in 24-well plates. […] Subsequently, the cells were added by 5.5 μ[…] and shaken for 5 seconds and then put on ice for 1 minute. After that, the cells were shaken again for 5 seconds and centrifuged (10,000 rpm, 4° C., 5 minutes). Cytoplasm and Nuclei could be separated by this process, and the supernatant was cytoplasmic proteins, and the pallet was nuclei. The supernatant was stored in an eppendorf in -80° C. b) Extraction of Nuclear Proteins The nuclear pallet was added by 500 μl PBS and centrifuged (10,000 rpm, 4° C., 5 minutes), and the supernatant was discarded. The pallet could be washed by this process and prevented contamination. […]

[2] = tested on: c-Fos protein in RAW264.7 cells; experiment: Western blot, expression of c-Fos induced by RANKL; details: 7.5 μM and 10 μM, RANKL 24 hours, FIG. 12
Description: The proteins were collected by scraping and were centrifuged (13,000 rpm, 4° C., 30 minutes). The supernatant was stored in an eppendorf in −80° C. • c) Concentrations of the proteins were examined by Bio-Red DC Protein Assay. After knowing the concentrations, the proteins were diluted to specific concentrations by adding ddH2O. One forth volume of the diluted proteins of sample buffer was added into the diluted proteins and was put in boiled water for 5 min and then was chilled on ice for 5 minutes. After short time centrifugation, the diluted proteins could be injected into wells of a gel. The gel was run at 100 V for 10 minutes until the proteins were driven to the intersection between a loading gel and a running gel. Then, the voltage was swopped to 200 V for 40 minutes. • d) A PVDF membrane was immersed in Methanol for 2 minutes. After two washes in ddH2O, the membrane was immersed in transfer buffer for 15 minutes. A SDS-PAGE was put on the membrane, and wet paper was flanked them. The proteins were transferred to the PVDF membrane using a semi-dry transfer at 20 V for 30 minutes. • e) The band of the PVDF membrane was trimmed and was added by suitable amount of blocking buffer (5% skim milk in washing buffer) and then was shaken for 1 hour in room temperature to block non specific bindings. Then, the band was covered by a diluted 1° antibody overnight in 4° C. […]

[3] = tested on: ERK phosphorylation in RAW264.7 cells; experiment: Western blot, phosphorylation of ERK induced by RANKL; details: 7.5 μM and 10 μM, RANKL 15 minutes, FIG. 9
Description: MAP kinases including ERK, JNK and p38 are stimulated by RANKL to be phosphorylized and further influence the down-stream key transcription factors which induce the differentiation of osteoclast-like cells such as c-Fos, NFATc1, etc. Before estimating the drug effect, 10 ng/ml RANKL are used to induce the phosphorylation of ERK, JNK and p38 at different time points. […] It is shown that KMUP-1 can reduce the activation of MAP kinases induced by RANKL. […] The proteins were collected by scraping and were centrifuged (13,000 rpm, 4° C., 30 minutes). The supernatant was stored in an eppendorf in −80° C. • c) Concentrations of the proteins were examined by Bio-Red DC Protein Assay. After knowing the concentrations, the proteins were diluted to specific concentrations by adding ddH2O. One forth volume of the diluted proteins of sample buffer was added into the diluted proteins and was put in boiled water for 5 min and then was chilled on ice for 5 minutes. After short time centrifugation, the diluted proteins could be injected into wells of a gel. The gel was run at 100 V for 10 minutes until the proteins were driven to the intersection between a loading gel and a running gel. Then, the voltage was swopped to 200 V for 40 minutes. • d) A PVDF membrane was immersed in Methanol for 2 minutes. After two washes in ddH2O, the membrane was immersed in transfer buffer for 15 minutes. […]

[4] = tested on: Fra-2 mRNA in RAW264.7 cells; experiment: RT-PCR, RANKL-induced mRNA expression of Fra-2; details: for RANKL-induced mRNA expression level of Fra-2: RAW264.7 cells, 24 hours, CTL 100%, mean ± SEM
From the text: The culture medium was discarded. […] [table] f) Running • A.

## Cn1c(=O)c2c(ncn2CCN2CCN(c3ccccc3Cl)CC2)n(C)c1=O [KMUP-1, 7-[2-[4-(2-Chlorophenyl)piperazin-1-yl]ethyl] theophylline]
[1]
  amount of p65 in the cell nucleus induced by RANKL: has the inhibiting effect on that p65 enters into a cell nucleus
[2]
  expression of c-Fos induced by RANKL: can efficiently inhibit it
[3]
  phosphorylation of ERK induced by RANKL: can efficiently inhibit the phosphorylation of ERK, JNK and p38 induced by RANKL
[4]; 10 ng/ml RANKL, summary of Table 1
  effect on mRNA expression of Fra-2 induced by RANKL (in words): not obviously inhibits
[4]; RANKL 10 ng/ml + KMUP-1 1 μM
  RANKL-induced mRNA expression level of Fra-2: 428.3 ± 38.5%
[4]; RANKL 10 ng/ml + KMUP-1 2.5 μM
  RANKL-induced mRNA expression level of Fra-2: 490.5 ± 42.3%
[4]; RANKL 10 ng/ml + KMUP-1 5 μM
  RANKL-induced mRNA expression level of Fra-2: 488.2 ± 57.6% ^
[4]; RANKL 10 ng/ml + KMUP-1 7.5 μM
  RANKL-induced mRNA expression level of Fra-2: 474.5 ± 52.1% ^
[4]; RANKL 10 ng/ml + KMUP-1 10 μM
  RANKL-induced mRNA expression level of Fra-2: 496.6 ± 44.1% ^

— patent US8507506B2, “Theophylline derivative inhibits osteoporosis” (Kaohsiung Medical University, priority 2011, dated 2013)
